Structures can show the parent of a compound that is named as a salt.
Legend:
acetylcholinesterase = acetylcholinesterase (Homo sapiens, UniProt P22303); experiment: Inhibitive effect on acetylcholinesterase activity (anti-acetylcholinesterase activity); assay type: biochemical
Protocol: Pharmacological action of the compound of the present invention was tested using several compounds prepared in Examples presented hereinafter and 9-amino-1,2,3,4-tetrahydroacridine (Tacrine) as a comparative compound.
Specific activities for the tested compounds were calculated using the following equation. [formula]

[1] = system: Amnesia Induced by Scopolamine in Mice; experiment: Effects on amnesia induced by scopolamine in mice (passive avoidance test); assay type: in vivo, Male ddy mice; settings: p.o., 30 min before scopolamine 1 mg/kg i.p.
Protocol: Male ddy mice, 6-7 week old, were used as subjects. A conventional two-compartment box was used for the passive avoidance test.
Tested compounds were given p.o. 30 minutes before scopolamine (1 mg/kg, i.p.). At 30 minutes after the scopolamine treatment, scrambled foot-schock (2 mA for 3 seconds) was applied to the mouse immediately after entry into the dark compartment. Retention was measured 6 hours after the training and was expressed as the mean latency to enter the dark compartment, with a cut-off point at 300 seconds. Percent improvement for the tested compounds were evaluated taking the difference between the retention latency of the untreated group and that of the control group as 100%.

[2] = system: Amnesia Induced by Scopolamine in Rats; experiment: Effects on amnesia induced by scopolamine in rats (passive avoidance test); assay type: in vivo, Male Wister rats; settings: p.o., 15 min after scopolamine hydrochloride 0.5 mg/kg i.p.
Protocol: Male Wister rats, 8 week old, were used as subjects. A conventional two-compartment box was used for the passive avoidance test.
Tested compounds were given p.o. 15 minutes after scopolamine hydrochloride (0.5 mg/kg, i.p.). At 15 minutes after the tested compound treatment, scrambled foot-schock (0.5 mA for 3 seconds) was applied to the rat immediately after entry into the dark compartment. Retention was measured 24 hours after the training and was expressed as the mean latency to enter the dark compartment, with a cut-off point at 600 seconds. Percent improvement for the tested compounds was evaluated taking the difference between the retention latency of the untreated group and that of the control group as 100%.

[3] = system: senile dementia patients of Alzheimer type; settings: Tacrine and lecithin; The New England Journal of Medicine, 315, 1241 (1986); cited from earlier work

acetylcholinesterase, sequence (P22303 32-614): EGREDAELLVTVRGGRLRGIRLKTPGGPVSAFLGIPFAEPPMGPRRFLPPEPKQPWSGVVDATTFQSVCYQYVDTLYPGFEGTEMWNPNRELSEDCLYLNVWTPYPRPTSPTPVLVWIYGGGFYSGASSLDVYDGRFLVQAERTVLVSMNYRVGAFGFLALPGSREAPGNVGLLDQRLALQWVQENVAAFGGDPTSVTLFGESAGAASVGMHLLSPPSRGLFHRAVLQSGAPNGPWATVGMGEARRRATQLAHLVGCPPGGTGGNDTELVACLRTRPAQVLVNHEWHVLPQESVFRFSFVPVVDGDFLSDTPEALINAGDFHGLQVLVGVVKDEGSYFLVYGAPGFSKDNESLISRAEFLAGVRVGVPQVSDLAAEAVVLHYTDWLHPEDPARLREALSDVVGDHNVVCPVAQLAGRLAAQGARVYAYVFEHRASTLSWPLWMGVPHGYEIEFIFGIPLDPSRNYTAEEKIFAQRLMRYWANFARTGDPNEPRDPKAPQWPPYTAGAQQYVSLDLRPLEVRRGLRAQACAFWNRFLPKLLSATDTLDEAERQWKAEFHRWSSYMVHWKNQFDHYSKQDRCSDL

With N#Cc1ccccc1NC1=CC(=O)N(CCC2CCN(Cc3ccccc3)CC2)C1 [Compound 2, N-(1-(4-(1-benzylpiperidyl)ethyl)-2-oxo-3-pyrrolin-4-yl)-2-aminobenzonitrile] the “Anti-acetylcholinesterase Activity (Specific Activity)” value (shortened to “Anti-acetylcholinesterase Activity”) (acetylcholinesterase) was 7.7, the “Percent Improvement” value ([1]; 0.01 mg/kg) was 10.0% and the “Percent Improvement” value ([1]; 0.3 mg/kg) was 72.8%.

For N#Cc1ccccc1NC1=CC(=O)N(CCCC2CCN(Cc3ccccc3)CC2)C1 [Compound 3, N-(1-(4-(1-benzylpiperidyl)propyl)-2-oxo-3-pyrrolin-4-yl)-2-aminobenzonitrile], the “Anti-acetylcholinesterase Activity” value (acetylcholinesterase) was 13.5, the “Percent Improvement” value ([1]; 0.1 mg/kg) was 16.0% and the “Percent Improvement” value ([1]; 0.3 mg/kg) was 53.4%.

In the case of Nc1c2c(nc3ccccc13)CN(CCC1CCN(Cc3ccccc3)CC1)C2=O [Compound 7, 9-Amino-2-(4-(1-benzylpiperidyl)ethyl)-2,3-dihydropyrrolo-[3,4-b]quinolin-1-one], the “Anti-acetylcholinesterase Activity” value (acetylcholinesterase) is reported as 1.94, the “Percent Improvement” value ([2]; 0.03 mg/kg) is reported as 36.1% and the “Percent Improvement” value ([2]; 0.1 mg/kg) is reported as 68.9%. For the same compound, the “Percent Improvement” value ([2]; 0.3 mg/kg) was 69.8%, the “Percent Improvement” value ([1]; 0.03 mg/kg) was 52.0% and the “Percent Improvement” value ([1]; 0.1 mg/kg) was 70.2%.

For Cl.Cl.Nc1c2c(nc3ccccc13)CCC(CCC1CCN(Cc3ccccc3)CC1)C2=O (stereo not drawn) [Compound 14, 9-amino-2-(2-(1-benzylpiperidin-4-yl)ethyl)-1,2,3,4-tetrahydroacridin-1-one dihydrochloride], the “Anti-acetylcholinesterase Activity” value (acetylcholinesterase) was 5.00, the “Percent Improvement” value ([2]; 0.1 mg/kg) was 0% and the “Percent Improvement” value ([2]; 0.3 mg/kg) was 50.8%. The “Percent Improvement” value ([1]; 0.03 mg/kg) was 50.0% and the “Percent Improvement” value ([1]; 0.1 mg/kg) was 71.9%.

In the case of Nc1c2c(nc3ccccc13)CCC(CCCCC1CCN(Cc3ccccc3)CC1)C2=O (stereo not drawn) [Compound 46, 9-Amino-2-(4-(1-benzylpiperidin-4-yl)butyl)-1,2,3,4-tetrahydroacridin-1-onedihydrochloride], the “Anti-acetylcholinesterase Activity” value (acetylcholinesterase) is reported as 47.62, the “Percent Improvement” value ([2]; 0.1 mg/kg) is reported as 32.3% and the “Percent Improvement” value ([2]; 0.3 mg/kg) is reported as 39.1%.

For O=C1c2c(nc3ccccc3c2O)CN1CCC1CCN(Cc2ccccc2)CC1 [Compound 61, 9-hydroxy-2-(4-(1-benzylpiperidyl)ethyl)-2,3-dihydropyrrolo[3,4-b]quinolin-1-one], the “Percent Improvement” value ([2]; 0.03 mg/kg) was 33.0%, the “Percent Improvement” value ([2]; 0.1 mg/kg) was 86.1% and the “Percent Improvement” value ([2]; 0.3 mg/kg) was 86.5%.

In the case of COc1c2c(nc3ccccc13)CN(CCC1CCN(Cc3ccccc3)CC1)C2=O [Compound 67, 9-methoxy-2-(4-(1-benzylpiperidyl)ethyl)-2,3-dihydropyrrolo[3,4-b]quinolin-1-one], the “Anti-acetylcholinesterase Activity” value (acetylcholinesterase) is reported as 9.52, the “Percent Improvement” value ([2]; 0.03 mg/kg) is reported as 50.4% and the “Percent Improvement” value ([2]; 0.1 mg/kg) is reported as 92.0%. For the same compound, the “Percent Improvement” value ([2]; 0.3 mg/kg) was 95.8%.

In the case of Nc1c2c(nc3ccccc13)CCCC2 [Tacrine, 9-amino-1,2,3,4-tetrahydroacridine, reference compound], the “improvement in symptoms of senile dementia patients of Alzheimer type” value [3] is given as “effectiveness”, the “Percent Improvement” value ([1]; 0.1 mg/kg) is given as 0% and the “Percent Improvement” value ([1]; 1.0 mg/kg) is given as 26.9%.
